Measurements as given in patent publication US7528235B2, “Multi-functional antibodies” (The Regents of the Univarsity of California, priority 2003, dated 2009).

Test system: antibody 2D12.5
Experiment: competitive immunoassay (ELISA) of metal-DOTA complexes against immobilized Y-DOTA
Assay type: binding, murine
Details: 37° C.; DOTA analog [S]-2-(p-nitrobenzyl)-DOTA
Excerpt: FIG. 13 is graphical display showing the relative binding of metal-DOTA complexes to antibody 2D12.5. A representative set of competitive binding curves obtained from ELISA experiments described in Example 3 below. Error bars (representing the standard error of the mean) are shown, but are generally smaller than the data points.
Elements plotted in the order Sc (open circle), Lu, Yb, Tm, Er, Ho, Y (open diamond), Dy, Tb, Gd, Eu, Sm, Nd, Pr, Ce, La. ΔΔG values relative to Y-DOTA, set at 0. Error bars represent standard error of the mean.
To determine the metal selectivity of the antibody 2D12.5, a competitive immunoassays was used to measure the binding constants of multiple metal-DOTA complexes relative to Y^3+-DOTA.
We examined the monoclonal antibody 2D12.5, initially developed to bind specifically to Y-DOTA for targeted radiotherapy (see, e.g., Goodwin et al., i Cancer Res. 54: 5937-5946 (1994)), in order to determine the scope of its activity. To assess the metal selectivity of antibody 2D12.5, a competitive immunoassay to measure the binding constants of various metal-DOTA complexes relative to the original Y^3+ complex was developed (FIG. 12). Briefly, 2D12.5 was incubated at 37° C. in the presence of immobilized Y-DOTA and a soluble metal-DOTA competitor. […] Binding was measured by standard methods known to those of skill in the art. […]

O=C([O-])CN1CCN(CC(=O)[O-])CCN(CC(=O)[O-])C(Cc2ccc([N+](=O)[O-])cc2)CN(CC(=O)[O-])CC1.[Tb+3] (stereo not shown) [Tb-DOTA]
binding strength relative to the original Y^3+ complex (in words): strongest binders
